The record followed here is ChEMBL document CHEMBL4014265, “Crassins A-H, Diterpenoids from the Roots of Croton crassifolius” (J Nat Prod, 2017).

In assay [1] the test system is HL-60. Put plainly: Cytotoxicity against human HL60 cells assessed as growth inhibition at 20 uM after 72 hrs by MTT assay relative to control. Particulars: HL-60, 72 h, read-out: GI. The class given is functional. (Tetrazolium dyes change colour on reduction, which living cells bring about.)
Assay [2] concerns A549. The experiment in a line: Cytotoxicity against human A549 cells assessed as growth inhibition at 20 uM after 72 hrs by SRB assay relative to control. Format: functional. Particulars: A549, 72 h, read-out: GI.
In assay [3] the test system is HL-60. The experiment in a line: Cytotoxicity against human HL60 cells assessed as growth inhibition after 72 hrs by MTT assay. Particulars: HL-60, 72 h. The class given is functional, cell-based.
The test system of assay [4] is A549. The experiment in a line: Cytotoxicity against human A549 cells assessed as growth inhibition after 72 hrs by SRB assay. Format: functional, cell-based. As to conditions: A549, 72 h. A general note: In SRB staining, fixed cells bind dye roughly in proportion to their protein.

Consider `COC(=O)[C@@]1(C)CC(=O)C2=C(c3ccoc3)C[C@]3(C)C2=C1CC[C@H]3C`, for which the inhibition of growth at 20 µM with HL-60 [1] and with A549 [2] was more than 50% each time. For the same compound, the IC50 (commonly the concentration at which inhibition is half-maximal) was 10.5 µM in the assay on HL-60 [3] and 8.4 µM with A549 [4].
`COC(=O)[C@]1(C)CCCC2=C1CC[C@@H](C)[C@]2(C)CCC1=CC(=O)O[C@H]1O`: the inhibition of growth at 20 µM in the assay on HL-60 [1] and in the assay with A549 [2] was more than 50% each time. For the same compound, the values for the IC50 with HL-60 [3] and in the assay with A549 [4] were 11.8 µM and 5.2 µM, respectively.
